# Data as given in patent publication US11078170B2 (Assembly Biosciences, Inc., priority 2017, dated 2021).
# pEC50: −log10 of the molar value.
# Tested on: HBV viral production from HepAD38 cells
# Experiment: Activity of test compounds on viral production from HepAD38 cells (viral load by qPCR of HBV core sequence in supernatant)
# Assay type: cell-based
# Details: Hepatitis B virus, 120 h, 5 days incubation, HBV DNA in supernatant by qPCR, top concentration 10 μM, read-out: Viral Load EC50 Activity range
# Method in brief: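 EC50 and CC50 come from four-parameter fits of supernatant viral load and CellTiter-Glo viability, respectively. Viral load was measured by core-region TaqMan qPCR against HBV DNA standards and compared with DMSO controls. Tet-free HepAD38 cells (50,000/well, 2% FBS) were exposed to compound, highest 10 μM, for 5 days at 37° C.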
row,Compound,pEC50
1,"CN1[C@@H](C(=O)Nc2ccc(F)c(Cl)c2)C[C@@H](c2ccc(-c3ccc(C#N)c(F)c3)s2)NS1(=O)=O [HBV-CSU-156-ISO-II, Cis-N-(3-chloro-4-fluorophenyl)-5-(5-(4-cyano-3-fluorophenyl)thiophen-2-yl)-2-methyl-1,2,6-thiadiazinane-3-carboxamide 1,1-dioxide]",< 5.30
2,"CN1C(C(=O)Nc2ccc(F)c(Cl)c2)CC(c2ccc(-c3ccc(Br)c(F)c3)s2)NS1(=O)=O (stereo not drawn) [HBV-CSU-157, Cis-N-(3-chloro-4-fluorophenyl)-5-(5-(4-bromo-3-fluorophenyl)thiophen-2-yl)-2-methyl-1,2,6-thiadiazinane-3-carboxamide 1,1-dioxide]",5.30 to 6.00
3,"CN1[C@H](C(=O)Nc2ccc(F)c(Cl)c2)C[C@H](c2ccc(-c3ccc(C(F)(F)F)nc3)s2)NS1(=O)=O [HBV-CSU-158-ISO-I, Cis-N-(3-chloro-4-fluorophenyl)-2-methyl-5-(5-(6-(trifluoromethyl)pyridin-3-yl)thiophen-2-yl)-1,2,6-thiadiazinane-3-carboxamide 1,1-dioxide]",> 6.00
4,"CN1[C@@H](C(=O)Nc2ccc(F)c(Cl)c2)C[C@@H](c2ccc(-c3ccc(C(F)(F)F)nc3)s2)NS1(=O)=O [HBV-CSU-158-ISO-II, Cis-N-(3-chloro-4-fluorophenyl)-2-methyl-5-(5-(6-(trifluoromethyl)pyridin-3-yl)thiophen-2-yl)-1,2,6-thiadiazinane-3-carboxamide 1,1-dioxide]",< 5.30
5,"CN1[C@@H](C(=O)Nc2ccc(F)c(Cl)c2)C[C@@H](c2ccc(-c3cccnc3)s2)NS1(=O)=O [HBV-CSU-159-ISO-I, Cis-N-(3-chloro-4-fluorophenyl)-2-methyl-5-(5-(pyridin-3-yl)thiophen-2-yl)-1,2,6-thiadiazinane-3-carboxamide 1,1-dioxide]",5.30 to 6.00
6,"CN1[C@H](C(=O)Nc2ccc(F)c(Cl)c2)C[C@H](c2ccc(-c3cccnc3)s2)NS1(=O)=O [HBV-CSU-159-ISO-II, Cis-N-(3-chloro-4-fluorophenyl)-2-methyl-5-(5-(pyridin-3-yl)thiophen-2-yl)-1,2,6-thiadiazinane-3-carboxamide 1,1-dioxide]",> 6.00
7,"CN1[C@H](C(=O)Nc2ccc(F)c(Cl)c2)C[C@H](c2ccc(-c3ccccn3)s2)NS1(=O)=O [HBV-CSU-160-ISO-I, Cis-N-(3-chloro-4-fluorophenyl)-2-methyl-5-(5-(pyridin-2-yl)thiophen-2-yl)-1,2,6-thiadiazinane-3-carboxamide 1,1-dioxide]",> 6.00
8,"CN1[C@@H](C(=O)Nc2ccc(F)c(Cl)c2)C[C@@H](c2ccc(-c3ccccn3)s2)NS1(=O)=O [HBV-CSU-160-ISO-II, Cis-N-(3-chloro-4-fluorophenyl)-2-methyl-5-(5-(pyridin-2-yl)thiophen-2-yl)-1,2,6-thiadiazinane-3-carboxamide 1,1-dioxide]",5.30 to 6.00
9,"CN1[C@H](C(=O)Nc2ccc(F)c(Cl)c2)C[C@H](c2ccc(-c3cnn(C)c3)s2)NS1(=O)=O [HBV-CSU-161-ISO-I, Cis-N-(3-chloro-4-fluorophenyl)-2-methyl-5-(5-(1-methyl-1H-pyrazol-4-yl)thiophen-2-yl)-1,2,6-thiadiazinane-3-carboxamide 1,1-dioxide]",> 6.00
10,"CN1[C@@H](C(=O)Nc2ccc(F)c(Cl)c2)C[C@@H](c2ccc(-c3cnn(C)c3)s2)NS1(=O)=O [HBV-CSU-161-ISO-II, Cis-N-(3-chloro-4-fluorophenyl)-2-methyl-5-(5-(1-methyl-1H-pyrazol-4-yl)thiophen-2-yl)-1,2,6-thiadiazinane-3-carboxamide 1,1-dioxide]",5.30 to 6.00
11,"CN1C(C(=O)Nc2ccc(F)c(Cl)c2)CC(c2ccc(-c3cccs3)s2)NS1(=O)=O (stereo not drawn) [HBV-CSU-162, Cis-N-5-([2,2′-bithiophen]-5-yl)-N-(3-chloro-4-fluorophenyl)-2-methyl-1,2,6-thiadiazinane-3-carboxamide 1,1-dioxide]",> 6.00
12,"CN1[C@H](C(=O)Nc2ccc(F)c(Cl)c2)C[C@H](c2ccc(-c3cccs3)s2)NS1(=O)=O [HBV-CSU-162-ISO-I, Cis-N-5-([2,2′-bithiophen]-5-yl)-N-(3-chloro-4-fluorophenyl)-2-methyl-1,2,6-thiadiazinane-3-carboxamide 1,1-dioxide]",> 6.00
13,"CN1[C@@H](C(=O)Nc2ccc(F)c(Cl)c2)C[C@@H](c2ccc(-c3cccs3)s2)NS1(=O)=O [HBV-CSU-162-ISO-II, Cis-N-5-([2,2′-bithiophen]-5-yl)-N-(3-chloro-4-fluorophenyl)-2-methyl-1,2,6-thiadiazinane-3-carboxamide 1,1-dioxide]",5.30 to 6.00
14,"CN1[C@H](C(=O)Nc2ccc(F)c(Cl)c2)C[C@H](c2ccc(-c3ccc(NS(C)(=O)=O)cc3)s2)NS1(=O)=O [HBV-CSU-163-ISO-I, Cis-N-(3-chloro-4-fluorophenyl)-2-methyl-5-(5-(4-(methylsulfonamido)phenyl)thiophen-2-yl)-1,2,6-thiadiazinane-3-carboxamide 1,1-dioxide]",> 6.00
15,"CN1[C@H](C(=O)Nc2ccc(F)c(Cl)c2)C[C@H](c2cc(-c3ccc(C#N)c(F)c3)cs2)NS1(=O)=O [HBV-CSU-164-ISO-I, Cis-N-(3-chloro-4-fluorophenyl)-5-(4-(4-cyano-3-fluorophenyl)thiophen-2-yl)-2-methyl-1,2,6-thiadiazinane-3-carboxamide 1,1-dioxide]",> 6.00
16,"CN1[C@@H](C(=O)Nc2ccc(F)c(Cl)c2)C[C@@H](c2cc(-c3ccc(C#N)c(F)c3)cs2)NS1(=O)=O [HBV-CSU-164-ISO-II, Cis-N-(3-chloro-4-fluorophenyl)-5-(4-(4-cyano-3-fluorophenyl)thiophen-2-yl)-2-methyl-1,2,6-thiadiazinane-3-carboxamide 1,1-dioxide]",< 5.30
17,"CN1[C@H](C(=O)Nc2ccc(F)c(Cl)c2)C[C@H](c2cc(-c3ccc(C(F)(F)F)nc3)cs2)NS1(=O)=O [HBV-CSU-166-ISO-I, Cis-N-(3-chloro-4-fluorophenyl)-2-methyl-5-(4-(6-(trifluoromethyl)pyridin-3-yl)thiophen-2-yl)-1,2,6-thiadiazinane-3-carboxamide 1,1-dioxide]",> 6.00
18,"CN1[C@@H](C(=O)Nc2ccc(F)c(Cl)c2)C[C@@H](c2cc(-c3ccc(C(F)(F)F)nc3)cs2)NS1(=O)=O [HBV-CSU-166-ISO-II, Cis-N-(3-chloro-4-fluorophenyl)-2-methyl-5-(4-(6-(trifluoromethyl)pyridin-3-yl)thiophen-2-yl)-1,2,6-thiadiazinane-3-carboxamide 1,1-dioxide]",< 5.30
19,"CN1[C@H](C(=O)Nc2ccc(F)c(Cl)c2)C[C@H](c2cc(-c3cccnc3)cs2)NS1(=O)=O [HBV-CSU-167-ISO-I, Cis-N-(3-chloro-4-fluorophenyl)-2-methyl-5-(4-(pyridin-3-yl)thiophen-2-yl)-1,2,6-thiadiazinane-3-carboxamide 1,1-dioxide]",> 6.00
20,"CN1[C@@H](C(=O)Nc2ccc(F)c(Cl)c2)C[C@@H](c2cc(-c3cccnc3)cs2)NS1(=O)=O [HBV-CSU-167-ISO-II, Cis-N-(3-chloro-4-fluorophenyl)-2-methyl-5-(4-(pyridin-3-yl)thiophen-2-yl)-1,2,6-thiadiazinane-3-carboxamide 1,1-dioxide]",< 5.30
21,"CN1[C@@H](C(=O)Nc2ccc(F)c(Cl)c2)C[C@@H](c2cc(-c3ccccn3)cs2)NS1(=O)=O [HBV-CSU-168-ISO-I, Cis-N-(3-chloro-4-fluorophenyl)-2-methyl-5-(4-(pyridin-2-yl)thiophen-2-yl)-1,2,6-thiadiazinane-3-carboxamide 1,1-dioxide]",5.30 to 6.00
22,"CN1[C@H](C(=O)Nc2ccc(F)c(Cl)c2)C[C@H](c2cc(-c3ccccn3)cs2)NS1(=O)=O [HBV-CSU-168-ISO-II, Cis-N-(3-chloro-4-fluorophenyl)-2-methyl-5-(4-(pyridin-2-yl)thiophen-2-yl)-1,2,6-thiadiazinane-3-carboxamide 1,1-dioxide]",> 6.00
23,"CN1[C@H](C(=O)Nc2ccc(F)c(Cl)c2)C[C@H](c2cc(-c3cnn(C)c3)cs2)NS1(=O)=O [HBV-CSU-169-ISO-I, Cis-N-(3-chloro-4-fluorophenyl)-2-methyl-5-(4-(1-methyl-1H-pyrazol-4-yl)thiophen-2-yl)-1,2,6-thiadiazinane-3-carboxamide 1,1-dioxide]",> 6.00
24,"CN1[C@@H](C(=O)Nc2ccc(F)c(Cl)c2)C[C@@H](c2cc(-c3cnn(C)c3)cs2)NS1(=O)=O [HBV-CSU-169-ISO-II, Cis-N-(3-chloro-4-fluorophenyl)-2-methyl-5-(4-(1-methyl-1H-pyrazol-4-yl)thiophen-2-yl)-1,2,6-thiadiazinane-3-carboxamide 1,1-dioxide]",5.30 to 6.00
25,CN1[C@@H](C(=O)Nc2ccc(F)c(Cl)c2)C[C@@H](c2cc(-c3cccs3)cs2)NS1(=O)=O [HBV-CSU-170-ISO-II],> 6.00
26,CN1[C@H](C(=O)Nc2ccc(F)c(Cl)c2)C[C@H](c2cc(-c3cccs3)cs2)NS1(=O)=O [HBV-CSU-170-ISO-I],> 6.00
27,CN1C(C(=O)Nc2ccc(F)c(Cl)c2)CC(c2cc(-c3cccs3)cs2)NS1(=O)=O (centres unmarked) [HBV-CSU-170],> 6.00
28,"CN1C(C(=O)Nc2ccc(F)c(Cl)c2)CC(c2cc(-c3ccc(NS(C)(=O)=O)cc3)cs2)NS1(=O)=O (stereo not drawn) [HBV-CSU-171, Cis-N-(3-chloro-4-fluorophenyl)-2-methyl-5-(4-(4-(methylsulfonamido)phenyl)thiophen-2-yl)-1,2,6-thiadiazinane-3-carboxamide 1,1-dioxide]",> 6.00
29,"CN1[C@H](C(=O)Nc2ccc(F)c(Cl)c2)C[C@H](c2ncc(-c3ccc(Br)c(F)c3)s2)NS1(=O)=O [HBV-CSU-173-ISO-I, Cis-5-(5-(4-Bromo-3-fluorophenyl)thiazol-2-yl)-N-(3-chloro-4-fluorophenyl)-2-methyl-1,2,6-thiadiazinane-3-carboxamide 1,1-dioxide]",> 6.00
